Reference: paper PMC3375010, “The TRPV5/6 calcium channels contain multiple calmodulin binding sites with differential binding properties” (Journal of Structural and Functional Genomics, 2012)

What was measured:
CaM (calmodulin) [1] = molecular target: T1, CaM (calmodulin) (Xenopus laevis, UniProt P0DP33); assay: Isothermal titration calorimetry of CaM with peptide; assay type: binding, Xenopus laevis (identical to mammalian); details: sequential binding sites model, N fixed to 2, 298 K
T1 construct: made in house; host or cells: E. coli AR58 (pTNcoI2 plasmid)
Text: Peptides corresponding to the amino acid residues 133–154, 310–330, 401–428, 591–612, 696–712 and 696–729 of human TRPV5 and 401–428 and 690–716 of human TRPV6 (cf. Table 1) were purchased from Peptides & elephants GmbH (Potsdam, Germany) and GenicBio Limited (Shanghai, China). All peptides were purified by HPLC (>95% purity) and analyzed by mass-spectrometry. Prior to all experiments, to remove residual TFA, the peptides were dialyzed against an appropriate buffer (dialysis tubing Spectra/Por® 7 with 1 K MWCO; Spectrum Labs, USA).
Expression was induced by a temperature shift from 30 to 42°C and 3–4 h after induction cells were harvested and lysed. Calmodulin was purified by weak anion exchange (DEAE, GE Lifesciences) and affinity chromatography (Phenylsepharose, GE Lifesciences). Purified protein was dialyzed against 1/100 of KCl 50 mM, CaCl2 10 mM, Tris 20 mM pH 7.0, freeze-dried and stored at −20°C. Unless specified differently, all chemicals were obtained from Sigma-Aldrich, USA). Uniformly ^13C and/or ^15N-labelled samples were produced by growing the cells in M9 minimal medium containing 4 g/L ^13C6-glucose and/or 1 g/L ^15N-ammonium chloride (Buchem BV, Apeldoorn, The Netherlands) as the sole source of carbon and/or nitrogen, respectively.
ITC samples were prepared by dissolving CaM and peptides in 50 mM KCl, 10 mM CaCl2, 20 mM Tris pH 7.0 buffer. The concentration of CaM in the cell was 15–20 μM, the concentration of peptides in the syringe exceeded the CaM concentration by 15–20 times. Protein concentrations were determined using a Nanodrop spectrophotometer ND-1000 (Isogen Life Science). ITC experiments were carried out using an ITC200 device (MicroCal Inc., Northampton, MA, USA). After thermal equilibration at 298 K, thirty-nine 1 μl serial injections were performed at 500 rpm stirring speed with an injection spacing of 4 min. To correct the experimental binding isotherm for background heat effects, we also titrated peptide into buffer. All measurements were performed at least three times to determine the optimal experimental conditions with respect to signal-to-noise ratio. In all cases, experiments were consistent and reproducible. ITC data analysis was performed using the Origin 7.0 software supplied by the manufacturer of the ITC. All data were analyzed with “one binding site model” and the “sequential binding site model” implemented in this software package.

CaM-Sepharose = details: ref S. Verkaart, private communication; cited from earlier work
Text: In our previous work we studied a long version of the C-terminal TRPV5 peptide 1 (V5p1, residues 696–729 in human TRPV5).

CaM (calmodulin) [2] = molecular target: T1, CaM (calmodulin); assay: Tryptophan fluorescence of the peptide upon titration by CaM; assay type: binding, Xenopus laevis (identical to mammalian); details: room temperature, excitation 282 nm
Protocol: Fluorescence measurements were performed using a Varian Cary Eclipse fluorescence spectrophotometer (Agilent Technologies, USA), with emission and excitation slit width set to 5 nm. Tryptophan excitation wavelength was set to 282 nm and emission spectra were recorded in the range 295–405 nm. Each spectrum was recorded three times and averaged. Fluorescence intensity contribution from CaM and background intensity from buffer and cuvettes were subtracted for each spectrum. The recorded emission intensities were corrected for dilution effects. All measurements were carried out at room temperature. CaM and peptides stocks were prepared in 50 mM KCl, 10 mM CaCl2 20 mM Tris pH 7.0 buffer. […] For each titration point, the samples were kept at room temperature for 30 min prior to measurements to ensure that the equilibrium was reached.

CaM (calmodulin) [3] = molecular target: T1, CaM (calmodulin); assay: 15N-1H-HSQC NMR titration of 15N-labelled CaM with peptide (with 1D 15N-filtered NMR); assay type: binding, Xenopus laevis (identical to mammalian); details: CaM buffer pH 7.0, 35°C
Protocol: For the titration by synthetic peptides, ^15N-labeled CaM samples with concentration 0.3–0.7 mM were used. CaM and peptides were dissolved in either KCl 50 mM, CaCl2 10 mM, Tris 20 mM pH 7.0 (V5p1s, V6p1, V5p4, V5p5), or 10 mM CaCl2, 10 mM ammonium acetate buffer pH 5.0 (V5p3 and V6p3), or MilliQ water with 10 mM 2-mercaptoethanol (V5p2 and V5p2n).
The binding of target peptides to CaM was monitored by 2D ^15N-^1H-HSQC spectra. The combination of 1D ^15N-filtered and 1D ^15N-^1H-HSQC experiments was used to assess the ratio of bound and non-bound peptides. ^15N-T1rho experiments were used to estimate the transverse relaxation rates of the CaM resonances during the titration. For sequential assignment of CaM 3D HNCACB and CBCA(CO)NH experiments were performed.
All spectra were recorded at 308 K on Varian Inova 800 MHz or Bruker Avance III 600 MHz spectrometers, each equipped with a cryogenic probe.
All NMR spectra were processed using the NMRpipe suite and analyzed by the program CcpNmr Analysis.

Sequence: GSHRGWEILRQNTLGHL [V5p1s, short TRPV5 C-terminal peptide 1, residues 696–712 of human TRPV5, S696G]
- K2 (macroscopic binding constant, second event) (CaM (calmodulin) [1]; association constant, 50 mM KCl, 10 mM CaCl2, 20 mM Tris pH 7.0, CaM 15–20 μM in cell): 2.9 (±1.9) × 10^4 M^−1
- K1 (macroscopic binding constant, first event) (CaM (calmodulin) [1]; association constant, 50 mM KCl, 10 mM CaCl2, 20 mM Tris pH 7.0, CaM 15–20 μM in cell, measured at least three times): 9.2 (±4.1) × 10^6 M^−1
- ΔS1 (CaM (calmodulin) [1]; pH 7.0): −95.3 cal mol^−1 deg^−1
- ΔS2 (CaM (calmodulin) [1]; pH 7.0): −64.1 cal mol^−1 deg^−1
- effect of C-terminal deletion of 17 amino acids on TRPV5 binding to CaM-Sepharose (CaM-Sepharose): did not affect TRPV5 binding to CaM-Sepharose
- emission maximum λmax (CaM (calmodulin) [2]; W701, peptide:CaM ratio 1:2, 50 mM KCl, 10 mM CaCl2, 20 mM Tris pH 7.0): ~ 324 nm
- shift of emission maximum upon CaM addition (CaM (calmodulin) [2]; emission 295–405 nm, peptide:CaM 1:0–1:2): clear blue-shift of the emission maximum
- CaM residues/domain involved in first binding event (CaM (calmodulin) [3]; 1:1 CaM:peptide): C-domain of CaM
- CaM residues/domain involved in second binding event (CaM (calmodulin) [3]; 1:2 CaM:peptide): N-domain of CaM
- number of distinct binding events (CaM (calmodulin) [3]; 15N-1H-HSQC at CaM:peptide 1:0, 1:1, 1:2): two binding events
